Reference: patent US20230227547A1, “ANTIBODY-PAYLOAD CONJUGATES WITH ENHANCED DELIVERY DOMAIN AND USES THEREOF” (IPROGEN BIOTECH INC., priority 2019, published 2023)

Tests used:
[1] = test system: LnCap; assay: Delivery assay, Goat anti-human IgG-AlexaFluor 488 fluorescence microscopy, LnCap; assay type: cell-based; set-up: key to Delivery efficiency of mAb (i.e., mAb): +++: Strong Alexa Fluor 488 (cyan/green) fluorescent intensity; ++: Medium level of Alexa Fluor 488 (cyan/green) fluorescent intensity; +: Weak, but noticeable Alexa Fluor 488 (cyan/green) fluorescent intensity; -: No signal; settings: Target cell LnCap; for Delivery efficiency of mAb (i.e., mAb): 100 nM, 3 hours; for Delivery enhancement: mAb-LL37 vs mAb
Experimental: (§1) Delivery assay. […] The culturing media containing the unbound antibodies were removed, and the MDA-MB-468 cells were washed with PBS. The adherent cells were treated with trypsin at 37 degree C for 1-2 minutes, neutralized in FACS buffer (2% v/v FBS, 2 mM EDTA, 0.05% w/v sodium azide in PBS), and transferred to FACS tubes on ice. The delivery of antibodies to cells was quantitated by measuring the red fluorescence intensity (i.e., PE-Texas Red color channel in the FACS detector) emitted fromZ-RFP bound to antibody. […] At the end of incubation, the adherent target cells were washed twice with ice-cold PBS, fixed with 2% (w/v) formaldehyde in PBS at room temperature for 15 minutes, and washed twice with PBS at room temperature. The fixed adherent target cells were then permeabilized with 0.05% (v/v) Tween-20 in PBS at room temperature for 15 minutes. The permeabilized cells were then incubated with 5% (v/v) FBS, 0.05% (v/v) Tween-20 in PBS at 37 degree Celsius incubator for 30 minutes. The secondary antibody, Goat anti-human IgG-AlexaFluor 488, was added to 5 ug/ml in 5% (v/v) FBS, 0.05% (v/v) Tween-20 in PBS, and incubated with the treated target cells at 37 degree Celsius incubator for 30 minutes. After incubation, the labelled cells were washed twice with PBS, and stored in storage buffer [5% (v/v) FBS in PBS] at 4 degree Celsius until fluorescence microscope imaging. The delivery of mAb and mAb-LL37 were determined qualitatively by estimating the green fluorescence intensity emitted from the AlexFluor488-labelled secondary antibody bound to mAb or mAb-LL37. […] However, Ramos [NT] No. ATCC CRL-1596, lot#70016960) was grown in suspension culture (i.e., in contrast to adherent cells), and the modification to the methods involves simply harvesting cells from the shaking culture flask for incubation with antibodies (or LL37-linked antibodies), and frequently pelleting down the target cells in the V-bottom 96-well polypropylene plate for downstream processes of PBS washing, fixing, permeabilizing, blocking, and the secondary antibody labelling. The secondary anti-human IgG-AlexaFluor488 labelled target cells were washed and resuspended in PBS, and transferred to the clear polystyrene 48-well plates for fluorescence microscope imaging.

[2] = test system: T47D cells; assay: Anti-HER2 mAb delivery efficiency using LL37-derived peptide constructs; assay type: cell-based, human; settings: for Delivery efficiency: peptide conjugated to anti-HER2 mAb light chain, 100 nM Ab, Z-GFP (PEP#6, 35-43) or Goat anti-human IgG-AlexaFluor 488 (PEP#6, 47-94) fluorescence microscopy; for delivery enhancement (in words): peptide conjugated to anti-HER2 mAb
Experimental: LL37 and LL37-derived peptides were produced synthetically with two additional N-terminal glycine residues (e.g. as shown in SEQ ID NO:2 compared to SEQ ID NO: 1) to enable the sortase reaction. The LL37-derived peptides (PEP#35 to #43, SEQ ID NOs: 13-21) were all dissolved at 10 mg/ml in phosphate buffer saline (PBS) at room temperature, sterile-filtered, and stored at -20° C. freezer. PEP#48 (SEQ ID: 74), PEP#49 (SEQ ID No: 75), and PEP#60 (SEQ ID NO: 105) were dissolved in 20% (v/v) acetonitrile in PBS. PEP#47 (SEQ ID NO: 96), PEP#86 (SEQ ID NO: 78), PEP#98 (SEQ ID NO: 79), PEP#99 (SEQ ID NO: 80), PEP#102 (SEQ ID NO: 82), and PEP#104 (SEQ ID NO: 84) were dissolved in DMSO. PEP#50 (SEQ ID No: 76), PEP#51 (SEQ ID No: 97), PEP#55 (SEQ ID No: 77), PEP#58 (SEQ ID No: 103), PEP#59 (SEQ ID No: 104), PEP#61 (SEQ ID No: 106), PEP#62 (SEQ ID No: 107), PEP#63 (SEQ ID No: 108), PEP#64 (SEQ ID No: 109), PEP#66 (SEQ ID No: 110), and PEP#94 (SEQ ID No: 35) were all dissolved in PBS. […] The reaction was incubated inside a 37° C. incubator for 16 hours, and then EDTA (pH 7.5) was added to 10 mM in the reaction mixture to chelate calcium and stop the reaction.
Delivery assay: The following delivery assay method was used on the anti-HER2 mAbs conjugated to the PEP#6, #35, #36, #37, #38, #39, #40, #41, #42, and #43 described in Table 7. […] The plates were then removed from the incubator, and the culturing media was removed from the adherent cells. The adherent cells were washed gently with an equal volume of ice-cold PBS. Then, the PBS wash was replaced 250 µl of fresh PBS for fluorescence microscope imaging.
At the end of incubation, the adherent target cells were washed twice with ice-cold PBS, fixed with 2% (w/v) formaldehyde in PBS at room temperature for 15 minutes, and washed twice with PBS at room temperature. The fixed adherent target cells were then permeabilized with 0.05% (v/v) Tween-20 in PBS at room temperature for 15 minutes. The permeabilized cells were then incubated with 5% (v/v) FBS, 0.05% (v/v) Tween-20 in PBS at 37 degree Celsius incubator for 30 minutes. The secondary antibody, Goat anti-human IgG-AlexaFluor 488, was added to 5 ug/ml in 5% (v/v) FBS, 0.05% (v/v) Tween-20 in PBS, and incubated with the treated target cells at 37 degree Celsius incubator for 30 minutes. After incubation, the labelled cells were washed twice with PBS, and stored in storage buffer [5% (v/v) FBS in PBS] at 4 degree Celsius until fluorescence microscope imaging. The delivery of mAb and mAb-LL37-derived peptides were determined qualitatively by estimating the green fluorescence intensity emitted from the AlexFluor488-labelled secondary antibody bound to mAb or mAb-LL37-derived peptides.

[3] = test system: T47D cells; assay: Cell viability assay with XTT, T47D; assay type: cell-based, human; settings: XTT (Taxol ADCs: 3 hours)
Experimental: The cell assay was done by treating/incubating the T47D cells with antibody drug conjugates for 3 hours in the 37 degree C tissue culture incubator. After treatment, cell viability was determined by XTT assay as described above.
(§2) After treatment, cell viability was determined by XTT assay as described above.

[4] = test system: RT4V6 cells; assay: Cell viability assay with XTT, RT4V6; assay type: cell-based, human; settings: 72 hours treatment
Experimental: Cell viability assay with XTT. On day 1, cells (RT4V6, Neuro2A) were seeded at about 0.02 to 0.025 million cells per ml concentration and incubated overnight in the 37° C. incubator. […] XTT and PMS solutions were freshly prepared immediately before the assay, and were used right away. XTT/PMS were added to the treated cells to start the XTT reaction. […] Spectral absorbance was measured at 475 nm (XTT) and 660 nm (background), and viability calculated from the spectral absorbance difference at 475 nm and 660 nm.
Cell assay was done by treating/incubating the RT4V6 cells with antibody drug conjugates for 72 hours in the 37 degree C tissue culture incubator. After treatment, cell viability was determined by XTT assay as described above.
The cell assay was done by treating/incubating the RT4V6 cells with antibody drug conjugates for 72 hours in the 37 degree C tissue culture incubator. After treatment, cell viability was determined by XTT assay as described above.
as §2
(§3) Cell viability assay with XTT. […] After treatment, cell viability was determined by XTT assay as described above.

[5] = test system: OVCAR3 cells; assay: Cell viability assay with XTT, OVCAR3; assay type: cell-based, human; settings: 72 hours (FIG. 10: 24 hours) treatment
Experimental: Cell viability assay with XTT. On day 1, cells (OVCAR3) were seeded at about 0.02 to 0.025 million cells per ml concentration and incubated overnight in the 37 degree Celsius incubator. […] One set was incubated for 24 hours, and another set for 72 hours. On day 3, the set with 24 hours, the treatment were removed, and replaced with fresh growth media, and continued incubation for the next 48 hours (for the total of 72 hours). On day 5, the set with both 24 hours and 72 hours treatments were analyzed. […] XTT and PMS solutions were freshly prepared immediately before the assay, and were used right away. XTT/PMS were added to the treated cells to start the XTT reaction. […] Spectral absorbance was measured at 475 nm (XTT) and 660 nm (background), and viability calculated from the spectral absorbance difference at 475 nm and 660 nm.
The cell assay was done by treating/incubating the OVCAR3 cells with antibody drug conjugates for 3 hours in the 37 degree C tissue culture incubator. After treatment, cell viability was determined by XTT assay as described above.
as §2
Cell viability assay was carried out with XTT as as described above.
as §3

[6] = test system: OVCAR3; assay: Delivery assay, Goat anti-human IgG-AlexaFluor 488 fluorescence microscopy, OVCAR3; assay type: cell-based; set-up: key to Delivery efficiency of mAb (i.e., mAb): +++: Strong Alexa Fluor 488 (cyan/green) fluorescent intensity; ++: Medium level of Alexa Fluor 488 (cyan/green) fluorescent intensity; +: Weak, but noticeable Alexa Fluor 488 (cyan/green) fluorescent intensity; -: No signal; settings: Target cell OVCAR3; for Delivery enhancement: mAb-LL37 vs mAb
Experimental: as §1, with “No. ATCC CRL-1596, lot#70016960) was grown in suspension culture (i.e., in contrast to adherent cells), and the modification to the methods involves simply harvesting cells from the shaking culture flask for incubation with antibodies (or LL37-linked antibodies), and frequently pelleting down the target cells in the V-bottom 96-well polypropylene plate for downstream processes of PBS washing, fixing, permeabilizing, blocking, and the secondary antibody labelling.” left out

[7] = test system: RT4v6; assay: Delivery assay, Goat anti-human IgG-AlexaFluor 488 fluorescence microscopy, RT4v6; assay type: cell-based; set-up: key to Delivery efficiency of mAb (i.e., mAb): +++: Strong Alexa Fluor 488 (cyan/green) fluorescent intensity; ++: Medium level of Alexa Fluor 488 (cyan/green) fluorescent intensity; +: Weak, but noticeable Alexa Fluor 488 (cyan/green) fluorescent intensity; -: No signal; settings: Target cell RT4v6; for Delivery enhancement: mAb-LL37 vs mAb
Experimental: as §1, with “No. ATCC CRL-1596, lot#70016960) was grown in suspension culture (i.e., in contrast to adherent cells), and the modification to the methods involves simply harvesting cells from the shaking culture flask for incubation with antibodies (or LL37-linked antibodies), and frequently pelleting down the target cells in the V-bottom 96-well polypropylene plate for downstream processes of PBS washing, fixing, permeabilizing, blocking, and the secondary antibody labelling.” left out

[8] = test system: CD20-positive RL cells; assay: Delivery assay, Z-RFP FACS, RL cells; assay type: cell-based, human; settings: 0.5 nM, 5 nM, 50 nM; 30 minutes
Experimental: For FIG. 30 Panel D, Ofatumumab-LL37 was made from Ofatumumab (SEQ ID NOs: 40 and 41) in a sortase-catalyzed reaction to GG-LL37 peptide (SEQ ID NO: 2), and purified on Protein A chromatography. For cell delivery assay, Ofatumumab/Ofatumumab-LL37 and equimolar equimolar number of Z-RFP were added to RL cells at described final concentration (i.e., 0.5 nM, 5 nM, and 50 nM) and incubated for 30 minutes. The liquid suspension culture was gently spun in a microcentrifuge at 2000 rpm for 4 minutes, and the clear supernatant was removed, and the cell pellet was washed in PBS and resuspended in FACS buffer (1XPBS, 2% FBS, 1 mM EDTA, 0.02% sodium azide) for analysis by FACS (Texas Red channel).

[9] = test system: Ramos; assay: Delivery assay, Goat anti-human IgG-AlexaFluor 488 fluorescence microscopy, Ramos; assay type: cell-based; set-up: key to Delivery efficiency of mAb (i.e., mAb): +++: Strong Alexa Fluor 488 (cyan/green) fluorescent intensity; ++: Medium level of Alexa Fluor 488 (cyan/green) fluorescent intensity; +: Weak, but noticeable Alexa Fluor 488 (cyan/green) fluorescent intensity; -: No signal
Experimental: Delivery assay. […] The culturing media containing the unbound antibodies were removed, and the MDA-MB-468 cells were washed with PBS. The adherent cells were treated with trypsin at 37 degree C for 1-2 minutes, neutralized in FACS buffer (2% v/v FBS, 2 mM EDTA, 0.05% w/v sodium azide in PBS), and transferred to FACS tubes on ice. The delivery of antibodies to cells was quantitated by measuring the red fluorescence intensity (i.e., PE-Texas Red color channel in the FACS detector) emitted fromZ-RFP bound to antibody. […] At the end of incubation, the adherent target cells were washed twice with ice-cold PBS, fixed with 2% (w/v) formaldehyde in PBS at room temperature for 15 minutes, and washed twice with PBS at room temperature. […] After incubation, the labelled cells were washed twice with PBS, and stored in storage buffer [5% (v/v) FBS in PBS] at 4 degree Celsius until fluorescence microscope imaging. The delivery of mAb and mAb-LL37 were determined qualitatively by estimating the green fluorescence intensity emitted from the AlexFluor488-labelled secondary antibody bound to mAb or mAb-LL37. […] The secondary anti-human IgG-AlexaFluor488 labelled target cells were washed and resuspended in PBS, and transferred to the clear polystyrene 48-well plates for fluorescence microscope imaging.

Anti-PSMA, hj591: Anti-PSMA mAb, SEQ ID NOs: 66 and 68
Delivery efficiency of mAb (i.e., mAb) [1]: ++
Delivery enhancement [1]: YES
Delivery enhancement ([1]; listed as hj591): greatly enhances the delivery

Citatuzumab [Anti-EpCAM, Citatuzumab]
Delivery efficiency of mAb (i.e., mAb) [1]: ++
Delivery enhancement [1]: YES

EFKRIVQRIKDFLRNLVPRT [PEP#64]
Delivery efficiency [2]: +

EKIGKEFKRIVQRIKDFLRN [PEP#63]
Delivery efficiency [2]: +

FRKSKEKIGKFFKRIVQRIFDFLRNLVMMWLL [PEP#48]
Delivery efficiency [2]: +++ (Same as LL37)

GSIGKEFKRIVQRIKDFLR [PEP#66]
Delivery efficiency [2]: ++ (Solid enhancement in delivery, but at lower efficiency than LL37)

IGKEFKRIVQRI [PEP#40]
Delivery efficiency [2]: +

IGKEFKRIVQRIKDFLRNLVPRTES [PEP#36]
Delivery efficiency [2]: ++ (Solid enhancement in delivery, but at lower efficiency than LL37)
killing of T47D / cell viability (in words) [3]: enhanced the anti-HER2 mAb-MMAE drug conjugate to kill T47D cells

IVQRIKDFLRNLVPRTES [PEP#38]
Delivery efficiency [2]: ++ (Solid enhancement in delivery, but at lower efficiency than LL37)
killing of T47D / cell viability (in words) [3]: enhanced the anti-HER2 mAb-MMAE drug conjugate to kill T47D cells

KEFKRIVQRIKDFLRGGGGSRLFDKIRQVIRKFEKG [PEP#55]
Delivery efficiency [2]: +++ (Same as LL37)
killing of RT4V6 / cell viability (in words) [4]: strongly enhance ADC killing
killing of OVCAR3 / cell viability (in words) [5]: strongly enhance ADC killing

KRIVQRIKDFL [PEP#60]
Delivery efficiency [2]: +

KSKEKIGKEFKRIVQ [PEP#42]
Delivery efficiency [2]: +

LLGDFFRASKEKIGKEFAAIVQAIKDFLANLVPATES [PEP#50]
delivery enhancement (in words) [2]: decrease in, but not abrogation of, delivery enhancement
Delivery efficiency [2]: +

LLGDFFRKSKEKIGKEFKRIVQRIK [PEP#35]
Delivery efficiency [2]: +

LLGDFFRKSKEKIGKEFKRIVQRIKDFLRNLVPRTESC [PEP#94]
Delivery efficiency [2]: +++ (Same as LL37)

LLGDFFRQSKEKIGKEFQQIVQQIKDFLQNLVPQTES [PEP#49]
delivery enhancement (in words) [2]: abolished the antibody delivery enhancement

Labetuzumab [Anti-CEACAM5, Labetuzumab]
Delivery efficiency of mAb (i.e., mAb) [1]: +
Delivery enhancement [1]: YES
Delivery enhancement ([1]; listed as labetuzumab): significantly increases the delivery

Lifastuzumab [Anti-NaPi2b, Lifastuzumab]
Delivery efficiency of mAb (i.e., mAb) ([6]; 100 nM, 3 hours): +
Delivery enhancement [6]: YES
Delivery enhancement ([6]; listed as lifastuzumab): significantly increases the delivery
Delivery enhancement [7]: significantly increases the delivery

MMWLL [PEP#47, reference compound]
delivery enhancement (in words) [2]: confirmed to not enhance antibody delivery to target cells alone

Ofatumumab-LL37
targeted delivery (in words) [8]: more efficient than anti-CD20 mAb (i.e., Ofatumumab) at targeted delivery

Rituximab [Anti-CD20, Rituximab]
Delivery efficiency of mAb (i.e., mAb) ([9]; Target cell Ramos (suspension culture)): ++
Delivery enhancement ([9]; Target cell Ramos, mAb-LL37 vs mAb): YES

Vofatamab [Anti-FGFR3, Vofatamab]
Delivery efficiency of mAb (i.e., mAb) ([7]; 100 nM, 3 hours): +
Delivery enhancement [7]: YES
